The record followed here is patent publication US20190365698A1, “Use of Antineoplastic Agents to Stimulate the Immune System for Treatment of Cancer” (CRITITECH, INC., priority 2018, published 2019).

The test system of data set [1] is 786-O cell line. Nature of the data set: Renal cell adenocarcinoma xenograft: histology and immunohistochemistry (viable carcinoma size, necrosis, lymphohistiocytic infiltrate). The data set is classed as in vivo, Sprague-Dawley Rag2; Il2rg null (SRG) rat. From the text: Microscopic Examination: Tissues fixed with 10% NBF were embedded in paraffin. Each tumor was cut into 2-3 pieces and embedded and sectioned together.

Data set [2] concerns UM-UC-3 bladder cancer cell line. In words: Bladder cancer xenograft study: histology and immunohistochemistry (viable carcinoma size, necrosis, macrophage infiltrate, TLS, necropsy volume).
Method: Tumors were implanted with 1×10^7 cells (1004, volume) into right flank (PBS 1:1 with matrigel: BD356234). Tumor volume was determined with calipers. Formula: V=(r length*r width*r height)*π*4/3. Animals were weighed 2×/week. Tumor volumes were determined every 3 to 4 days following tumor implant (total of ˜20 measurements) and on day of euthanasia. Photo images of tumors were obtained at 2, 3 and 4 weeks post implantation and on day of euthanasia. Animals were euthanized once the tumor reached a size of 3,000 mm^3 or up to the point of significant tumor ulceration. At the time of euthanasia, tumors were isolated and halved. […] The second half of the tumor was fixed in formalin. Two H&E stained slides/tumor were prepared (up to 4 tumor/group were processed).
Tumor tissue was fixed before H&E and IHC staining. Bladder tissue sections were deparaffinized and processed by standard H&E and IHC staining. At least four tumors per treatment group were processed.
Data set [3] shares this test system. Nature of the data set: Human bladder cancer (UM-UC-3) mouse xenograft study: tumor volume. The data set is classed as in vivo, Hsd:Athymic Nude-Foxnlnu nude mice. The protocol: Tumor volume was determined with calipers. […] Animals were weighed 2×/week.
At day 18 after tumor implant, when average tumor size was between 50-325 mm^3, animals were sorted into five groups with equal average tumor sizes and were treated as shown in Table 25 below.
The second treatments (2nd cycle) occurred 7 days following first treatment (1st cycle) and third treatments (3rd cycle) occurred 14 days following the first treatment. The docetaxel solution IV was administered via the tail vein.
Vehicle (Control): Diluted 1 ml of the 1% Polysorbate 80/8% Ethanol in normal saline (0.9% Sodium Chloride for Injection) reconstitution solution with 1.5 mL of normal saline (0.9% Sodium Chloride for Injection, USP). […] Vigorously hand shook the vial with inversions for 1 minute. […] Allowed the suspension to sit undisturbed for at least 5 minutes to reduce entrapped air and foam. […] Vortexed to mix.

Data set [4] concerns 786-O cell line. Nature of the data set: Rat xenograft model of human renal cell adenocarcinoma: tumor volume. The data set is classed as in vivo, Sprague-Dawley Rag2; Il2rg null (SRG) rat. As to conditions: IV docetaxel, 3 weekly cycles. Background: In xenograft studies the graft and the host belong to different species.
Data set [5] can be described thus: Solubility of the active in the receptor fluid. The data set is classed as physicochemical. As to conditions: not told, aqueous with cosolvent or surfactant or cyclodextrin; 96 wt % PBS at pH 7.4 and 4 wt % hydroxyl propyl beta cyclodextrin. The protocol:
The receptor fluid was degassed by filtering the receptor fluid through a ZapCap CR 0.2 μm membrane while pulling vacuum. The filtered receptor fluid was stirred for an additional 20 minutes while maintaining vacuum to ensure complete degassing.

Where [6] appears, read: IV Docetaxel 3 cycles, 2 animals.

≈ marks a conversion by molar mass, not a printed value. Where “and” joins values, the source holds several entries; their conditions need not be identical. Equal entries are not always repeated. Marks after values point to notes of the source that are not given here.

For orientation: solubility means the concentration that dissolves in the medium under given conditions.

For `CC(=O)O[C@@]12CO[C@@H]1C[C@H](O)[C@@]1(C)C(=O)[C@H](O)C3=C(C)[C@@H](OC(=O)[C@H](O)[C@@H](NC(=O)OC(C)(C)C)c4ccccc4)C[C@@](O)([C@@H](OC(=O)c4ccccc4)[C@H]21)C3(C)C` [Doce], the “Percentage of tissue showing necrosis: number of animals with 5-50%” value in data set [1] (IV Doce, 2 animals) was 2. The “Lymphohistiocytic infiltrate density: number of animals graded Mild” value in data set [1] (IV Doce, 2 animals, H/E and CD11b staining) is given as 2.
As for `CC(=O)O[C@@]12CO[C@@H]1C[C@H](O)[C@@]1(C)C(=O)[C@H](O)C3=C(C)[C@@H](OC(=O)[C@H](O)[C@@H](NC(=O)OC(C)(C)C)c4ccccc4)C[C@@](O)([C@@H](OC(=O)c4ccccc4)[C@H]21)C3(C)C` [Docetaxel, docetaxel], the “Histology overview (H&E) vs vehicle control” value in data set [1] (Docetaxel (IV) 3 cycles, FIG. 93) is on record as “no difference”. In addition, in data set [1] (IV docetaxel, two cases), the “morphologic and immunohistochemical appearance” value is “identical morphologic and immunohistochemical appearance to that seen in the control and IT vehicle groups”. The “Size of residual viable carcinoma on slide: number of animals with >10 mm” value in data set [1] (IV docetaxel, 2 animals) stood at 2. Also, the “residual viable carcinoma nodules, size” value in data set [1] (both IV docetaxel animals) is listed as “greater than 10 mm”. In addition, the “Histological overview, general observations (H&E)” value in data set [2] (Docetaxel Solution IV 3 cycles) is “many viable appearing tumor masses with some macrophage and occasional lymphocytic response along with some tumor necrosis”. The “Immunohistochemistry overview, F4/80 stain” value in data set [2] (FIG. 87, IV Docetaxel 3 cycles) is “Very little tumor cell destruction and few scattered mononuclear immune cells among vast number of viable tumor cells”. Besides, in data set [2] (setting [6]), the “# containing at least one TLS” value is 0, the “Maximum size of viable invasive carcinoma on the slide >10 mm (number of animals)” value is 2*, the “Percentage of tumor showing necrosis: number of animals with 11-50%” value stood at 1 and the “Percentage of tumor showing necrosis: number of animals with 50-90%” value was found to be 1. Moreover, the “Macrophage infiltrate density Mild (number of animals)” value in data set [2] (IV Docetaxel 3 cycles, H&E and CD68) was 2. The “Maximum tumor size on slide” value in data set [2] (IV Docetaxel 3 cycles, individual animals B1, B3) is 15 mm and 11 mm. For the same compound, in data set [2] (IV docetaxel 3 cycles), the TLSs entry is reported as “There were no TLSs present”; the “tumor mass maximum dimension on the slide, individual cases” value was 11 mm and 15 mm. Besides, in data set [2] (IV docetaxel 3 cycles, cases B1 and B3), the “geographic tumor cell necrosis, share of tumor area, individual cases” value was 11-50% and 50-90%. For the same compound, the “Tumor volume over time” value in data set [3] (Docetaxel IV 30 mg/kg, 3 weekly cycles, 61 days) is “decreased initially for dosages of nDoce IT 1 cycle and Docetaxel IV 3 cycles, but subsequently increased”. Besides, the “Effectiveness in relation to initial tumor size” value in data set [3] (Docetaxel IV 3 cycles) was “somewhat effective at treating small tumors, but not very effective in treating large tumors”. In addition, the “tumor growth vs vehicle control” value in data set [4] is “partial tumor growth inhibition compared to vehicle control”.
On to `CC(=O)O[C@H]1C(=O)[C@@]2(C)[C@H]([C@H](OC(=O)c3ccccc3)[C@]3(O)C[C@H](OC(=O)[C@H](O)[C@@H](NC(=O)c4ccccc4)c4ccccc4)C(C)=C1C3(C)C)[C@]1(OC(C)=O)CO[C@@H]1C[C@@H]2O` [paclitaxel], for which the solubility in data set [5] is roughly 0.4 µg/mL (≈ 0.468 µM).
